The structures appear in SMILES notation.

What all share (assay type): in vivo
One experiment has as its system Alopecurus myosuroides. As to the kind of experiment: Greenhouse post-emergence herbicidal effect against Alopecurus myosuroides. The following applies: 408 h, 17 DAA, read-out: % Efficacy; for Emax at 5 g/ha: individual application 5 g of AS/ha. On the procedure:
(§1) Post-emergence action against weeds
(§2) Seeds or rhizome pieces of mono- and dicotyledonous harmful plants and of crop plants were placed in sandy loam in plastic pots having a diameter of 4 cm, covered with soil and cultivated in a greenhouse under good growth conditions.
(§3) Ten to twenty days after sowing, the test plants were treated at the one- to three-leaf stage. The herbicide/active compound combinations according to the invention (mixture applications) formulated as suspensions and, in parallel tests, the correspondingly formulated individual active compounds (individual applications) were then sprayed onto the green parts of the plants in various dosages at a water application rate of 300 I/ha (converted).
(§4) After the test plants had been kept in the greenhouse under optimum growth conditions for a certain period of time (DAA, days after application), the herbicidal activity was assessed visually by comparison of treated and untreated plants. The percentages mean: 0%=no herbicidal activity, 100%=the plants die off completely.
(§5) The percentages from the treatments with the herbicides alone (individual applications) and with the combinations according to the invention (mixture applications) were employed to calculate interactions using the method of Colby. When the observed efficacies of the mixture applications exceed the formal sum of the values of the tests with individual applications, they also exceed the expected value according to Colby, which is calculated using the formula below (cf. S. R. Colby; in Weeds 15 (1967) pp. 20 to 22):
(§6) Here: • A, B=activity of component A (triafamone) or B (indaziflam) in percent at a dosage of a and b, respectively, in g of AS/ha (gram of active substance per hectare). • exp. expected value in % at a dosage of a+b g of ai/ha. • b) Results
(§7) The abbreviations in the tables below have the following meanings: • DAA=days after application • g of AS/ha=grams of active substance per hectare • % efficacy=herbicidal effect in percent • meas.=measured values • exp.=expected values according to Colby (calculation: see above) • syn.%=difference (%) of measured value from expected value (%) (measured value minus expected value)/

Another experiment concerns Hordeum murinum. In words: Greenhouse post-emergence herbicidal effect against Hordeum murinum. As to conditions: 408 h, 17 DAA, read-out: % Efficacy; for Emax at 20 g/ha: individual application 20 g of AS/ha. The protocol: as §1, §2, §3, §4, §5, §6, §7
In the next experiment the test system is Avena fatua. As to the kind of experiment: Greenhouse post-emergence herbicidal effect against Avena fatua. As to conditions: 408 h, 17 DAA, read-out: % Efficacy. The protocol: as §1, §2
(§8) Ten to twenty days after sowing, the test plants were treated at the one- to three-leaf stage. […]
(§9) After the test plants had been kept in the greenhouse under optimum growth conditions for a certain period of time (DAA, days after application), the herbicidal activity was assessed visually by comparison of treated and untreated plants. […]
(§10) The percentages from the treatments with the herbicides alone (individual applications) and with the combinations according to the invention (mixture applications) were employed to calculate interactions using the method of Colby. When the observed efficacies of the mixture applications exceed the formal sum of the values of the tests with individual applications, they also exceed the expected value according to Colby, which is calculated using the formula below (cf. S. R. Colby; in Weeds 15 (1967) pp. 20 to 22): […]

The next experiment deals with Viola tricolor. In words: Greenhouse post-emergence herbicidal effect against Viola tricolor. As to conditions: 408 h, 17 DAA, read-out: % Efficacy; for Emax at 5 g/ha: individual application 5 g of AS/ha. On the procedure: as §1, §2, §3, §4, §5, §6, §7
In another experiment the test system is Lolium rigidum. In words: Greenhouse post-emergence herbicidal effect against Lolium rigidum. The following applies: 216 h, 9 DAA, read-out: % Efficacy; for Emax at 10 g/ha: individual application 10 g of AS/ha; for Emax at 20 g/ha: individual application 20 g of AS/ha. On the procedure:
as §1, §2, §3, §4, §5, §6, §7

The subject of a further experiment is Glycine max. As to the kind of experiment: Greenhouse post-emergence herbicidal effect against Glycine max. The following applies: 408 h, 17 DAA, read-out: % Efficacy; for Emax at 10 g/ha: individual application 10 g of AS/ha. The protocol: as §1, §2, §3, §4, §5, §6, §7
The subject of the next experiment is Zea mays. As to the kind of experiment: Greenhouse post-emergence herbicidal effect against Zea mays. As to conditions: 408 h, 17 DAA, read-out: % Efficacy; for Emax at 10 g/ha: individual application 10 g of AS/ha. On the procedure: as §1, §2, §3, §4, §5, §6, §7
Another experiment concerns Triticum aestivum. As to the kind of experiment: Greenhouse post-emergence herbicidal effect against Triticum aestivum. As to conditions: 216 h, 9 DAA, read-out: % Efficacy; for Emax at 5 g/ha: individual application 5 g of AS/ha; for Emax at 10 g/ha: individual application 10 g of AS/ha; for Emax at 20 g/ha: individual application 20 g of AS/ha. The protocol: as §1, §2, §3, §4, §5, §6, §7

Experiment [1] relates to mono- and dicotyledonous harmful plants and crop plants. In words: Greenhouse trials, discussion of the results over all test plants. As to conditions: at the dosages tested, post-emergence. On the procedure:
as §1, §2, §8, §9, §10

Where [2] appears, read: individual application 10 g of AS/ha.
Where [3] appears, read: individual application 20 g of AS/ha.
The mark [4] stands for this setting: individual application 5 g of AS/ha.
[5] abbreviates: individual application 2.5 g of AS/ha.

On to `Cc1ccc2c(c1)[C@H](Nc1nc(N)nc(C(C)F)n1)[C@@H](C)C2` (stereo partly drawn) [indaziflam], for which the Emax at 5 g/ha in the experiment with Alopecurus myosuroides was 15%; in the experiment with Avena fatua (setting [4]), 10%; in the experiment on Viola tricolor, 80%; with Glycine max (setting [4]) it was 50%; in the experiment with Triticum aestivum, 23%. In addition, the Emax at 10 g/ha in the experiment on Alopecurus myosuroides (setting [2]) was found to be 60%; with Lolium rigidum, 63%; in the experiment with Glycine max it was 73%; in the experiment on Zea mays, 0%; with Triticum aestivum it was 23%. Moreover, the Emax at 20 g/ha in the experiment with Alopecurus myosuroides (setting [3]) stood at 75%; in the experiment on Hordeum murinum it was 40%; in the experiment with Lolium rigidum it was 70%; in the experiment on Zea mays (setting [3]) it was 25%; in the experiment with Triticum aestivum, 48%. In addition, the Emax at 40 g/ha in the experiment on Triticum aestivum (individual application 40 g of AS/ha) is 63%.
Regarding `COc1nc(OC)nc(C(=O)c2cccc(F)c2N(C)S(=O)(=O)C(F)F)n1` [triafamone], the Emax at 2.5 g/ha is 25% in the experiment with Alopecurus myosuroides (setting [5]); 0% in the experiment on Hordeum murinum (setting [5]); 0% with Viola tricolor (setting [5]); 0% with Lolium rigidum (setting [5]); 0% in the experiment on Glycine max (setting [5]); 0% in the experiment on Zea mays (setting [5]). For the same molecule, the Emax at 2.5 g/ha in the experiment with Triticum aestivum (setting [5]) is 0%. The Emax at 5 g/ha in the experiment on Alopecurus myosuroides is 50%; in the experiment on Hordeum murinum (setting [4]) it was 0%; in the experiment on Viola tricolor it was 0%; in the experiment with Lolium rigidum (setting [4]) it was 0%; in the experiment with Zea mays (setting [4]), 0%; in the experiment on Triticum aestivum it was 0%. The “herbicidal efficacy as individual herbicide” value in [1] is “frequently ineffective”. The Emax at 20 g/ha was 0% with Hordeum murinum, 18% in the experiment on Lolium rigidum and 13% in the experiment on Triticum aestivum. Moreover, the Emax at 10 g/ha in the experiment on Avena fatua (setting [2]), in the experiment on Viola tricolor (setting [2]), with Lolium rigidum, in the experiment on Glycine max, with Zea mays and in the experiment with Triticum aestivum was 0% throughout.

Values taken from patent US20190387739A1, “HERBICIDAL COMBINATION CONTAINING TRIAFAMONE AND INDAZIFLAM” (Bayer CropScience Aktiengesellschaft, priority 2016, published 2019).
